We go through 15 compounds from US20240125807A1, “METHOD FOR MEASURING RELATIVE fu RATIO BY DYNAMIC [sequence]” (Chugai Seiyaku Kabushiki Kaisha, priority 2020, published 2024).

For data set [1] the following is noted: rat and human, 24 h, 0.2 μmol/L.
Data set [2] in a line: in vitro. Conditions: rat.
A short description of data set [3]: in vitro. Conditions: human, serum.
A short description of data set [4]: fu by static analysis (versus buffer), rat serum (Reference Example). The note with it: Reference Examples 4 to 13: 10% serum versus buffer, 24 h.
Data set [5] can be described thus: Relative fu ratio rat/human, equilibrium dialysis serum versus serum, dynamic analysis. Conditions: Examples 4 to 13: 10% serum, analyte 0.2 μmol/L, 0.5-24 h. On the technique in general: In equilibrium dialysis only unbound substance equilibrates across the membrane.
The conditions of data set [6]: cited from earlier work.
A short description of data set [7]: fu ratio (serum/microsome) from fu values by static analysis (versus buffer), Reference Examples 14 to 20. The note with it: from fu values of Reference Examples 14 to 20 (static analysis versus buffer). It is filed as in vitro ADME, human.
Data set [8] is described as follows: fu ratio (serum/microsome) using fu value (microsome) and fu value (serum)=0.01 based on the FDA guidance, Reference Examples 21 to 27. It is filed as in vitro ADME, human. The note with it: fu value (microsome) of Reference Examples 14 to 20 and fu value (serum)=0.01 per FDA guidance (Reference Examples 21 to 27).
For data set [9], the target named is T1, CYP3A4 (Homo sapiens, UniProt P08684). The experiment in a line: Inhibition constant Ki in human hepatic microsome with midazolam as CYP3A4 probe substrate. How it is done:
For predicting the DDI risk, midazolam that is a CYP3A4 substrate was used as a probe compound to determine an inhibition constant Ki value of each compound in human hepatic microsome.
To 5 μL of a solution of midazolam dissolved therein at 50 mmol/L was added 70 μL of a 50% acetonitrile solution to obtain 75 μL in total of a solution. […] To 25 mg of commercially available β-NADPH (Wako Pure Chemical Industries, Ltd.) was added 3000 μL of a phosphate buffer at 0.1 mol/L to obtain a NADPH solution (10 mmol/L). The prepared solutions were mixed in the following order to obtain an inhibition reaction solution (100 μL in total), and the solution was reacted for 5 minutes with stirring at 37° C. where the time immediately after addition of the NADPH solution was defined as 0 minute after the start of the reaction.
The thus-obtained sample was used as a LCMS measurement solution. Two sets of the LCMS measurement solution were prepared, with one intended for quantitative determination of 1-hydroxymidazolam generated by metabolic reaction and the other intended for measurement of the actual concentration of a compound to be measured (inhibitor). Each set was used for LCMS quantitative analysis.
Therefore, the determined IC50 was directly used as Ki value.

For data set [10] the following is noted: serum, 24 h, 0.2 μmol/L.
For data set [11], the target named is T1, CYP3A4. Also noted: unit not given beside the values. Conditions: in vivo, cited from earlier work.
For data set [12] the following is noted: serum, 24 h, 0.2 μmol/L. This is another data set of the same source.
A short description of data set [13]: fu value (microsome) by static analysis (versus buffer), Reference Examples 14 to 20. It is filed as in vitro ADME. The note with it: human, human hepatic microsomes 0.1 mg/mL dialysed against buffer, microsome 0.1 mg/mL.
The nature of data set [14]: fu by static analysis (versus buffer), human serum (Reference Example). Conditions: 24 h, 10% serum fu corrected to serum concentration 1/1.
A short description of data set [15]: Relative fu ratio (serum/microsome), human serum and human hepatic microsome, dynamic analysis. Conditions: human serum fu corrected to 1/1, human hepatic microsome 0.1 mg/mL.
Data set [16] has as its target T1, CYP3A4. Conditions: read-out: Km value; midazolam as CYP3A4 substrate, suggested in the literature; cited from earlier work.

For orientation: fraction unbound means the share of the substance not bound to proteins or other matrix. What is called Cmax is the highest concentration seen after dosing. In general, Ki refers to a dissociation constant, usually derived from enzyme kinetics or from competition with a known ligand. Broadly, the Km is the substrate concentration at which the rate is half of its maximum.

Structures are written as SMILES. Where two headings read alike, the source gives them in different places.

T1 sequence (P08684 whole entry): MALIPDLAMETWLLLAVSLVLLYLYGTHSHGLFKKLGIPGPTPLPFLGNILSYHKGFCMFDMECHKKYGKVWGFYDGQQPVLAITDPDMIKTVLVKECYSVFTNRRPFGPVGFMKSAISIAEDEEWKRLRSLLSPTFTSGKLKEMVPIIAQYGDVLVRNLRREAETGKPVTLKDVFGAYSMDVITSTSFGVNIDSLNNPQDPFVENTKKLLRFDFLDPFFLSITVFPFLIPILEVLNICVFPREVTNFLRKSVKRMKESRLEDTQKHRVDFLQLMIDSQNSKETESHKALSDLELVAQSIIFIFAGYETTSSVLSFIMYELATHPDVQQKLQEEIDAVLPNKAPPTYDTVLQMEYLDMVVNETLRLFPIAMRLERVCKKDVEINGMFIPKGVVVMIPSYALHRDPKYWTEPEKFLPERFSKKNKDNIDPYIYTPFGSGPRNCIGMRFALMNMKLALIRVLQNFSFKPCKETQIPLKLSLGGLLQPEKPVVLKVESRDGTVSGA

For `CNC(=O)c1ccc(N2C(=S)N(c3cnc(C#N)c(C(F)(F)F)c3)C(=O)C23CCC3)cc1F` [Apalutamide], the “fu ratio (rat/human)” value came out at 3.36 in data set [1], 2.30 in data set [4] and 2.50 in data set [5]. Besides, the fraction unbound at 24 h, 0.2 μmol/L was found to be 0.104 in data set [2] and 0.03 in data set [3].

For the compound `O=C1CCc2ccc(OCCCCN3CCN(c4cccc(Cl)c4Cl)CC3)cc2N1` [Aripiprazole], the free fraction (fraction unbound) in data set [2] (serum) was found to be 0.003; in data set [3] (Human (fu value)), 0.002; in data set [3] (Human serum (serum concentration: 1/1) (fu value)), 0.0021. Also, the Cmax in data set [6] (Dose 15 mg) was 242 ng/mL.

With `C=C[C@@H]1C[C@]1(NC(=O)[C@@H]1C[C@@H](Oc2ncc(OC)c3ccc(Cl)cc23)CN1C(=O)[C@@H](NC(=O)OC(C)(C)C)C(C)(C)C)C(=O)NS(=O)(=O)C1CC1` [Asunaprevir], the fraction unbound at 24 h, 0.2 μmol/L in data set [2] turned out to be 0.008; in data set [3] it was 0.005.

For `COc1ccc2c(c1)[C@@H]1C[C@]1(C(=O)N1[C@@H]3CC[C@H]1CN(C)C3)Cn1c-2c(C2CCCCC2)c2ccc(C(=O)NS(=O)(=O)N(C)C)cc21` [Beclabuvir], the fraction unbound at 24 h, 0.2 μmol/L stood at 0.008 in [2] (serum) and 0.007 in data set [3].

For the compound `O=C(O)c1ccc(-n2nc(-c3ccccc3O)nc2-c2ccccc2O)cc1` [Deferasirox], the “fu ratio (serum/microsome)” value in data set [7] is 0.0046; in data set [8], 0.0099. In data set [9], the inhibition constant (Ki) is at least 49 µM. Moreover, in [9] (microsomes), the Ki value entry is recorded as “maximum addition concentration”. Moreover, in data set [10], the “Human (fu value)” value is listed as 0.005. This compound also registered a fraction unbound at 24 h, 0.2 μmol/L in data set [2] (serum) of 0.02. Besides, the peak concentration (Cmax) in [6] (Dose 210 mg) is 40327 ng/mL. For the same compound, the “AUCR (observed value)” value in data set [11] (210 mg) was 0.90.

On to `C[C@]12C=CC(=O)N[C@@H]1CC[C@@H]1[C@@H]2CC[C@]2(C)[C@@H](C(=O)Nc3cc(C(F)(F)F)ccc3C(F)(F)F)CC[C@@H]12` [Dutasteride], for which the free fraction (fraction unbound) at 24 h, 0.2 μmol/L in [2] (serum) was 0.009; in [3], 0.006.

Take `COC(=O)N[C@H](C(=O)N1CCC[C@H]1c1nc(-c2ccc3c(c2)O[C@@H](c2ccccc2)n2c-3cc3cc(-c4c[nH]c([C@@H]5CCCN5C(=O)[C@@H](NC(=O)OC)C(C)C)n4)ccc32)c[nH]1)C(C)C` [Elbasvir]: the “Rat (fu value)” value in data set [12] is given as 0.001. Further, in [10], the “Human (fu value)” value was 0.001.

As to `C=CC(=O)N1CCC[C@@H](n2nc(-c3ccc(Oc4ccccc4)cc3)c3c(N)ncnc32)C1` [Ibrutinib], the free fraction (fraction unbound) at 24 h, 0.2 μmol/L in [2] (serum) was determined as 0.007; in data set [3], 0.019.

For `CCC(C)n1ncn(-c2ccc(N3CCN(c4ccc(OCC5COC(Cn6cncn6)(c6ccc(Cl)cc6Cl)O5)cc4)CC3)cc2)c1=O` (stereo not shown) [Itraconazole], the fraction unbound at 24 h, 1 μmol/L in [13] came out at 0.77. For the same compound, the Cmax in data set [6] (Dose 50 mg) was 14.11 ng/mL; in [6] (Dose 200 mg) it was 163.93 ng/mL; in data set [6] (Dose 400 mg), 317.52 ng/mL. Further, the “AUCR (observed value)” value in data set [11] (50 mg) was 1.91; in data set [11] (200 mg) it was 5.05; in [11] (400 mg), 5.07.

For `CC(=O)N1CCN(c2ccc(OCC3COC(Cn4ccnc4)(c4ccc(Cl)cc4Cl)O3)cc2)CC1` (stereo not shown) [Ketoconazole], the Cmax in data set [6] (Dose 200 mg) is 4681.36 ng/mL; in data set [6] (Dose 400 mg) it was 5877.28 ng/mL.

Regarding `CS(=O)(=O)CCNCc1ccc(-c2ccc3ncnc(Nc4ccc(OCc5cccc(F)c5)c(Cl)c4)c3c2)o1` [Lapatinib], the fraction unbound at 24 h, 1 μmol/L in data set [13] was found to be 0.05.

As for `O=C(NC1CCN(CCCCC2(C(=O)NCC(F)(F)F)c3ccccc3-c3ccccc32)CC1)c1ccccc1-c1ccc(C(F)(F)F)cc1` [Lomitapide], the “Human (fu value)” value in data set [10] is 0.002. For the same compound, in data set [2] (serum), the free fraction (fraction unbound) at 24 h, 0.2 μmol/L is 0.006.

As to `c1ccc(Cc2nn[nH]n2)c(COc2ccc(OCc3ccc4ccccc4n3)cc2)c1` [RG12525], the fraction unbound at 24 h, 1 μmol/L in data set [13] was found to be 0.77. Further, the “fu ratio (serum/microsome)” value is 0.0005 in data set [7] and 0.0129 in data set [8]. This compound also had a Ki in data set [9] of 1.49 µM. For the same compound, the Cmax in [6] (Dose 100 mg) was 1482 ng/mL; in data set [6] (Dose 600 mg) it was 8186 ng/mL. The “AUCR (observed value)” value in data set [11] (100 mg) is on record as 1.09; in data set [11] (600 mg), 1.01.

As for `CCCSc1nc(N[C@@H]2C[C@H]2c2ccc(F)c(F)c2)c2nnn([C@@H]3C[C@H](OCCO)[C@@H](O)[C@H]3O)c2n1` [Tikaglera], the “fu ratio (serum/microsome)” value in [7] turned out to be 0.0065; in data set [8], 0.0207. For the same compound, the Ki value entry in [9] (human hepatic microsome, midazolam 0.33 μmol/L, IC50 used as Ki) was “maximum addition concentration”. For the same compound, in data set [9] (read-out: Ki value, human hepatic microsome, midazolam 0.33 μmol/L as CYP3A4 substrate, IC50 directly used as Ki), the Ki was at least 87 µM. The Cmax in data set [6] (Dose 90 mg) was 403 ng/mL. The “Human serum (serum concentration: 1/1) (fu value)” value in data set [14] was found to be 0.0032. In addition, the “fu ratio (scrum/microsome)” value in data set [15] turned out to be 0.0103.

`Cc1ncc2n1-c1ccc(Cl)cc1C(c1ccccc1F)=NC2` [midazolam]: the Km in [16] was 2.06 µM.
